{"source": "paper PMC5843817", "about": "“Preclinical validations of [^18F]FPyPEGCBT-c(RGDfK): a ^18F-labelled RGD peptide prepared by ligation of 2-cyanobenzothiazole and 1,2-aminothiol to image angiogenesis” (EJNMMI Radiopharmacy and Chemistry, 2016)", "key": {"[1]": {"tested_on": "αVβ3, αVβ5 and α5β1 integrins on SKOV-3 cancer cells", "assay": "[^125I]echistatin displacement cell binding assay, SKOV-3", "parameters": "species or system human", "conditions": "SKOV-3 cells; displacement of [^125I]echistatin; 1 h, 37 °C", "procedure": "(§1) In vitro integrin-binding of FPyPEGCBT-c(RGDfK) was evaluated using a standard displacement assay of [^125I]echistatin. U-87 MG and SKOV-3 cells were seeded in 96-well plates 24 h prior to the experiment (U-87 MG, 6 × 10^4 cells per well; SKOV-3, 3 × 10^4 cells per well). On the day of the experiment, the cells were washed twice with binding buffer (20 mM Tris pH 7.4, 150 mM NaCl, 2 mM CaCl2, 1 mM MgCl2, 1 mM MnCl2, 0.1 % BSA), then co-incubated for 1 h at 37 °C in binding buffer with 370 Bq/well [^125I]echistatin (Perkin Elmer, Schwerzenbach, Switzerland) and a concentration range (10^−9 to 10^−4 M) of FPyPEGCBT-c(RGDfK) or c(RGDfV) (PeptaNova, Sandhausen, Germany) as a reference peptide. Cells were then washed three times with binding buffer and lysed in 1 M NaOH. The cell-associated radioactivity was measured in a Wizard^2 2470 γ-counter (Perkin Elmer). The IC50 (Inhibitory Concentration of 50 %) values were calculated by fitting the data by nonlinear regression using GraphPad Prism (GraphPad software, La Jolla, CA, USA).\n(§2) Fig. 2 Displacement of [^125I]echistatin by FPyPEGCBT-c(RGDfK). U-87 MG and SKOV-3 cancer cells were co-incubated for 1 h in 96-well plates with 370 Bq/well [^125I]echistatin and a concentration range (10^−9 to 10^−4 M) of FPyPEGCBT-c(RGDfK) or c(RGDfV). After lysis, the cell-associated radioactivity was measured in a γ-counter. […]"}, "[2]": {"tested_on": "αVβ3, αVβ5 and α5β1 integrins on U-87 MG cancer cells", "assay": "[^125I]echistatin displacement cell binding assay, U-87 MG", "parameters": "species or system human", "conditions": "U-87 MG cells; displacement of [^125I]echistatin; 1 h, 37 °C", "procedure": "as §1, §2"}}, "data": [{"substance": "c(RGDfV)", "values": [{"measurement": "IC50", "setting": "[1]", "value": "259 ± 2", "unit": "nM"}, {"measurement": "IC50", "setting": "[2]", "value": 600, "unit": "nM"}]}]}
